What was measured:
Conditions in all cases: incubation time: 72 h
[1] = test system: Hs578T; assay: normalised response (% of control), CellTox Green; higher = less cell death (100 = DMSO, 0 = benzethonium chloride kill control)
How it was run: (§1)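 Values are normalised signals, each belonging to one concentration of the series. Breast cancer cells (20 µl suspension) were seeded into 384-well plates with compound at 5 concentrations in 10-fold steps over a compound-specific 10,000-fold range and incubated 72 h. Readouts were CellTox Green fluorescence (485/520 nm), then CellTiter-Glo luminescence after 10 min at room temperature, with each plate set to 0.1 % DMSO as 100 and a positive kill control as 0.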

[2] = test system: MDA-MB-468; assay: as above
How it was run: as §1

[3] = test system: MDA-MB-436; assay: as above
How it was run: as §1

[4] = test system: BT-549; assay: as above
How it was run: as §1

[5] = test system: DU-4475; assay: as above
How it was run: as §1

[6] = test system: MDA-MB-453; assay: as above
How it was run: as §1

[7] = test system: CAL-120; assay: as above
How it was run: as §1

[8] = test system: HCC1937; assay: as above
How it was run: as §1

[9] = test system: CAL-51; assay: as above
How it was run: as §1

[10] = test system: HCC1599; assay: as above
How it was run: as §1

[11] = test system: MDA-MB-231; assay: as above
How it was run: as §1

[12] = test system: CAL-148; assay: as above
How it was run: as §1

[13] = test system: MFM-223; assay: as above
How it was run: as §1

[14] = test system: HCC1143; assay: as above
How it was run: as §1

[15] = test system: CAL-85-1; assay: as above
How it was run: as §1

[16] = test system: BT-474; assay: as above
How it was run: as §1

[17] = test system: MCF-10A; assay: as above
How it was run: as §1

[18] = test system: HDQ-P1; assay: as above
How it was run: as §1

[19] = test system: Hs578T; assay: normalised response (% of control), CellTiter-Glo; higher = more viable cells (100 = DMSO, 0 = benzethonium chloride kill control)
How it was run: as §1

[20] = test system: MDA-MB-468; assay: as above
How it was run: as §1

[21] = test system: MDA-MB-436; assay: as above
How it was run: as §1

[22] = test system: BT-549; assay: as above
How it was run: as §1

[23] = test system: DU-4475; assay: as above
How it was run: as §1

[24] = test system: MDA-MB-453; assay: as above
How it was run: as §1

[25] = test system: CAL-120; assay: as above
How it was run: as §1

[26] = test system: HCC1937; assay: as above
How it was run: as §1

[27] = test system: CAL-51; assay: as above
How it was run: as §1

[28] = test system: HCC1599; assay: as above
How it was run: as §1

[29] = test system: MDA-MB-231; assay: as above
How it was run: as §1

[30] = test system: CAL-148; assay: as above
How it was run: as §1

[31] = test system: SK-BR-3; assay: as above
How it was run: as §1

[32] = test system: MFM-223; assay: as above
How it was run: as §1

[33] = test system: HCC1143; assay: as above
How it was run: as §1

[34] = test system: CAL-85-1; assay: as above
How it was run: as §1

[35] = test system: BT-474; assay: as above
How it was run: as §1

[36] = test system: MCF-10A; assay: as above
How it was run: as §1

[37] = test system: HDQ-P1; assay: as above
How it was run: as §1

Row | Structure (SMILES) | normalised response [1] [%] | normalised response [2] [%] | normalised response [3] [%] | normalised response [4] [%] | normalised response [5] [%] | normalised response [6] [%] | normalised response [7] [%] | normalised response [8] [%] | normalised response [9] [%] | normalised response [10] [%] | normalised response [11] [%] | normalised response [12] [%] | normalised response [13] [%] | normalised response [14] [%] | normalised response [15] [%] | normalised response [16] [%] | normalised response [17] [%] | normalised response [18] [%] | normalised response [19] [%] | normalised response [20] [%] | normalised response [21] [%] | normalised response [22] [%] | normalised response [23] [%] | normalised response [24] [%] | normalised response [25] [%] | normalised response [26] [%] | normalised response [27] [%] | normalised response [28] [%] | normalised response [29] [%] | normalised response [30] [%] | normalised response [31] [%] | normalised response [32] [%] | normalised response [33] [%] | normalised response [34] [%] | normalised response [35] [%] | normalised response [36] [%] | normalised response [37] [%]
1 | CC(C)C[C@H](NC(=O)[C@@H](COC(C)(C)C)NC(=O)[C@H](Cc1ccc(O)cc1)NC(=O)[C@H](CO)NC(=O)[C@H](Cc1c[nH]c2ccccc12)NC(=O)[C@H](Cc1cnc[nH]1)NC(=O)[C@@H]1CCC(=O)N1)C(=O)N[C@@H](CCCNC(=N)N)C(=O)N1CCC[C@H]1C(=O)NNC(N)=O [Goserelin] (100 nM) | 78.9 | 129 | 89.7 | 108 | 97.8 | 105 | 96.2 | 89.5 | 60.7 | 86.3 | 89.7 | 87.4 | 99.1 | 55.7 | 99.8 | 101 | 98.9 | 108 | 97.1 | 102 | 101 | 103 | 97.4 | 101 | 103 | 95.8 | 71 | 94.2 | 99 | 93.8 | 92.7 | 94.9 | 98.7 | 97.3 | 99.2 | 94 | 99.9
2 | CC(O)(CS(=O)(=O)c1ccc(F)cc1)C(=O)Nc1ccc(C#N)c(C(F)(F)F)c1 (stereo unspecified) [Bicalutamide] (100 nM) | 90.6 | 131 | 108 | 85 | 100 | 108 | 99.5 | 106 | 98.3 | 116 | 110 | 102 | 89.8 | 107 | 95.9 | 102 | 85.1 | 115 | 96.7 | 105 | 107 | 102 | 105 | 114 | 105 | 100 | 80.7 | 103 | 117 | 110 | 113 | 107 | 103 | 98.9 | 108 | 106 | 100
3 | C=CCN(/C=C1/C(=O)O[C@H](COC)[C@@]2(C)C1=C(O)C(=O)C1=C2[C@H](OC(C)=O)C[C@]2(C)C(=O)CC[C@@H]12)CC=C [Sonolisib] (100 nM) | 73.7 | 112 | 107 | 108 | 106 | 106 | 101 | 121 | 102 | 115 | 110 | 98.6 | 109 | 117 | 106 | 96.5 | 72.8 | 63.5 | 94.7 | 105 | 106 | 106 | 105 | 102 | 109 | 99.7 | 85.2 | 104 | 107 | 116 | 107 | 107 | 105 | 109 | 106 | 108 | 102
4 | CC[C@H](CO)Nc1nc(NCc2ccccc2)c2ncn(C(C)C)c2n1 [Seliciclib] (100 nM) | 100 | 102 | 61.4 | 102 | 101 | 104 | 98.4 | 118 | 105 | 109 | 96 | 108 | 107 | 82.7 | 92.4 | 97.1 | 104 | 105 | 104 | 102 | 105 | 102 | 104 | 114 | 97.6 | 94.2 | 101 | 110 | 99.8 | 112 | 106 | 107 | 106 | 98.6 | 105 | 97.1 | 101
5 | Cc1cn(-c2cc(NC(=O)c3ccc(C)c(Nc4nccc(-c5cccnc5)n4)c3)cc(C(F)(F)F)c2)cn1 [Nilotinib] (100 nM) | 85.3 | 123 | 103 | 97.5 | 102 | 85.7 | 85.9 | 103 | 96.3 | 105 | 110 | 93.5 | 61.4 | 109 | 105 | 102 | 99.2 | 68.1 | 97.6 | 103 | 100 | 115 | 103 | 96.3 | 94.4 | 95.4 | 81.9 | 106 | 94.9 | 106 | 96.3 | 96 | 94.2 | 107 | 99 | 104 | 105
6 | Cc1nc(C(=O)NCC(=O)O)c(O)c2ccc(Oc3ccccc3)cc12 [FG-4592] (100 nM) | 94.9 | 114 | 97 | 105 | 105 | 103 | 102 | 79.8 | 102 | 90.1 | 112 | 95.8 | 92.8 | 109 | 103 | 98.2 | 101 | 106 | 105 | 97.1 | 98.6 | 106 | 103 | 101 | 102 | 98 | 97.4 | 112 | 111 | 108 | 112 | 106 | 106 | 104 | 101 | 115 | 98.3
7 | O=C(O)CNC(=O)c1c(O)c2ccccc2n(Cc2ccccc2)c1=O [IOX-2] (500 nM) | 99.3 | 115 | 98.3 | 97.3 | 111 | 104 | 97.7 | 95.6 | 73.4 | 99.3 | 110 | 73.2 | 101 | 83.3 | 112 | 103 | 95.2 | 100 | 99.4 | 90.4 | 94.4 | 94.7 | 101 | 105 | 103 | 97.2 | 61.5 | 98.5 | 100 | 92.9 | 96.3 | 97.1 | 98.4 | 99 | 99.2 | 104 | 102
8 | CC(C)(C)NC(=O)[C@H]1CC[C@H]2[C@@H]3CC[C@H]4NC(=O)C=C[C@]4(C)[C@H]3CC[C@]12C [Finasteride] (100 nM) | 107 | 98.8 | 94.8 | 102 | 102 | 103 | 100 | 99.7 | 101 | 104 | 101 | 57.3 | 85.2 | 93.1 | 100 | 99 | 95.4 | 83.5 | 105 | 94.9 | 107 | 100 | 104 | 109 | 114 | 95.7 | 87.7 | 97.8 | 104 | 108 | 101 | 104 | 98.9 | 98.5 | 99.2 | 110 | 96.6
